Measured values from ChEMBL document CHEMBL3885861, “Open TG-GATES”.

Species on record: Rattus norvegicus
Assay: Open TG-GATES - Regimen: Daily Repeat
Format: toxicity, organism-based, Sprague-Dawley
Parameters: regimen Daily Repeat, gender Male, age 6 weeks
Conditions: in vivo, po, route gavage; for Bas / Eos / Fbg / Hb / Ht / Lym / MCH / MCHC / MCV / Mono / Neu / PT / Plat / RBC / Ret / WBC / APTT: tissue Blood; for KIDNEY_L / KIDNEY_R / KIDNEY_TOTAL: tissue Kidney; for LIVER: tissue Liver; for ALP / AST / BUN / CRE / Ca / Cl / DBIL / GLC / IP / LDH / Na / PL / RALB / TBIL / TC / TG / TP / gamma-GTP: tissue Plasma
[1] = 30 mg/kg, 72 h, dose level Middle, time 3 day
[2] = 30 mg/kg, […], dose level Middle, time 7 day
[3] = 30 mg/kg, […], dose level Middle, time 14 day
[4] = 30 mg/kg, […], dose level Middle, time 28 day
[5] = 100 mg/kg, 72 h, dose level High, time 3 day
[6] = 100 mg/kg, […], dose level High, time 7 day
[7] = 100 mg/kg, […], dose level High, time 14 day
[8] = 100 mg/kg, […], dose level High, time 28 day

CC(=O)N1CCN(c2ccc(OCC3COC(Cn4ccnc4)(c4ccc(Cl)cc4Cl)O3)cc2)CC1 (configuration not stated) [KETOCONAZOLE]
Bas [1]: 0%
Eos [1]: 1%
Fbg [1]: 303.8 mg/dL
Hb [1]: 13.4 g/dL
Ht [1]: 39.7%
Lym [1]: 77.4%
MCH [1]: 21.4 pg
MCHC [1]: 33.8%
MCV [1]: 63.3 fL
Mono [1]: 2.4%
Neu [1]: 18.2%
PT [1]: 16.3 s
Plat [1]: 117.1 x10_4/uL
RBC [1]: 627.6 x10_4/ul
Ret [1]: 5.6%
WBC [1]: 101.1 x10_2/uL
KIDNEY_L [1]: 1 g
KIDNEY_R [1]: 1.1 g
KIDNEY_TOTAL [1]: 2.1 g
LIVER [1]: 10.5 g
ALP [1]: 1639 IU/L
AST [1]: 67.4 IU/L
BUN [1]: 17.8 mg/dL
CRE [1]: 0.1 mg/dL
Ca [1]: 10.8 mg/dL
Cl [1]: 106.4 meq/L
DBIL [1]: 0 mg/dL
GLC [1]: 181.8 mg/dL
IP [1]: 6.7 mg/dL
LDH [1]: 236.6 IU/L
Na [1]: 139.8 meq/L
PL [1]: 141.8 mg/dL
RALB [1]: 3.1 g/dL
TBIL [1]: 0.01 mg/dL
TC [1]: 71 mg/dL
TG [1]: 88.6 mg/dL
TP [1]: 5.7 g/dL
gamma-GTP [1]: 1.2 IU/L
TERMINAL_BW [2]: 265.9 g
TERMINAL_BW [3]: 312.9 g
TERMINAL_BW [4]: 360.4 g
APTT [2]: 21.8 s
Bas [2]: 0%
Eos [2]: 1%
Fbg [2]: 321.6 mg/dL
Hb [2]: 13.5 g/dL
Ht [2]: 39.7%
Lym [2]: 75.8%
MCH [2]: 21.2 pg
MCHC [2]: 34%
MCV [2]: 62.4 fL
Mono [2]: 2.4%
PT [2]: 16 s
Plat [2]: 121.4 x10_4/uL
RBC [2]: 636.6 x10_4/ul
Ret [2]: 5.4%
WBC [2]: 103.7 x10_2/uL
APTT [3]: 21.1 s
Bas [3]: 0%
Eos [3]: 0.8%
Fbg [3]: 291.8 mg/dL
Hb [3]: 13.4 g/dL
Ht [3]: 39.6%
Lym [3]: 76%
MCH [3]: 20.5 pg
MCHC [3]: 33.8%
MCV [3]: 60.7 fL
Mono [3]: 2.4%
Neu [3]: 19.2%
PT [3]: 16.2 s
Plat [3]: 126.1 x10_4/uL
RBC [3]: 652.8 x10_4/ul
Ret [3]: 4.9%
WBC [3]: 115.1 x10_2/uL
APTT [4]: 25 s
Bas [4]: 0%
Eos [4]: 1%
Fbg [4]: 286.6 mg/dL
Hb [4]: 15.2 g/dL
Ht [4]: 43.9%
Lym [4]: 76.8%
MCH [4]: 19.6 pg
MCHC [4]: 34.5%
MCV [4]: 56.9 fL
Mono [4]: 1.6%
PT [4]: 16.9 s
Plat [4]: 105.3 x10_4/uL
RBC [4]: 773.4 x10_4/ul
Ret [4]: 2.6%
WBC [4]: 102.4 x10_2/uL
KIDNEY_L [2]: 1.2 g
KIDNEY_R [2]: 1.2 g
KIDNEY_TOTAL [2]: 2.3 g
KIDNEY_L [3]: 1.3 g
KIDNEY_R [3]: 1.3 g
KIDNEY_TOTAL [3]: 2.6 g
KIDNEY_L [4]: 1.3 g
KIDNEY_R [4]: 1.4 g
KIDNEY_TOTAL [4]: 2.7 g
LIVER [2]: 12.2 g
LIVER [3]: 14.4 g
LIVER [4]: 15.1 g
ALP [2]: 1565.4 IU/L
AST [2]: 70.4 IU/L
BUN [2]: 18.2 mg/dL
CRE [2]: 0.1 mg/dL
Ca [2]: 10.6 mg/dL
Cl [2]: 108.2 meq/L
DBIL [2]: 0 mg/dL
GLC [2]: 176.4 mg/dL
IP [2]: 6.9 mg/dL
LDH [2]: 171.8 IU/L
Na [2]: 142 meq/L
PL [2]: 145 mg/dL
RALB [2]: 3 g/dL
TBIL [2]: 0.004 mg/dL
TC [2]: 70.4 mg/dL
TG [2]: 135.4 mg/dL
TP [2]: 5.7 g/dL
gamma-GTP [2]: 1.6 IU/L
ALP [3]: 1247.8 IU/L
AST [3]: 65.4 IU/L
BUN [3]: 18.2 mg/dL
CRE [3]: 0.1 mg/dL
Ca [3]: 10.4 mg/dL
Cl [3]: 106.8 meq/L
DBIL [3]: 0 mg/dL
GLC [3]: 180.8 mg/dL
IP [3]: 6.6 mg/dL
LDH [3]: 194.8 IU/L
Na [3]: 142.2 meq/L
PL [3]: 140 mg/dL
RALB [3]: 3 g/dL
TBIL [3]: 0.004 mg/dL
TC [3]: 68.6 mg/dL
TG [3]: 134 mg/dL
TP [3]: 5.8 g/dL
gamma-GTP [3]: 1 IU/L
ALP [4]: 1104.2 IU/L
AST [4]: 66.8 IU/L
BUN [4]: 18.4 mg/dL
CRE [4]: 0.2 mg/dL
Ca [4]: 10.4 mg/dL
DBIL [4]: 0 mg/dL
GLC [4]: 179 mg/dL
IP [4]: 4.9 mg/dL
LDH [4]: 155.2 IU/L
Na [4]: 142.4 meq/L
PL [4]: 126 mg/dL
RALB [4]: 3.1 g/dL
TBIL [4]: 0.008 mg/dL
TC [4]: 61.6 mg/dL
TP [4]: 6.1 g/dL
gamma-GTP [4]: 1.2 IU/L
TERMINAL_BW [5]: 230.7 g
APTT [5]: 20.5 s
Bas [5]: 0%
Eos [5]: 0.8%
Fbg [5]: 321 mg/dL
Hb [5]: 13.3 g/dL
Ht [5]: 39.8%
MCH [5]: 20.9 pg
MCHC [5]: 33.5%
MCV [5]: 62.4 fL
Mono [5]: 2.8%
Neu [5]: 16.2%
PT [5]: 16.2 s
Plat [5]: 128.4 x10_4/uL
RBC [5]: 639 x10_4/ul
Ret [5]: 5.2%
WBC [5]: 83.5 x10_2/uL
KIDNEY_L [5]: 1.1 g
KIDNEY_R [5]: 1 g
KIDNEY_TOTAL [5]: 2.1 g
LIVER [5]: 12.1 g
ALP [5]: 1481 IU/L
AST [5]: 63.8 IU/L
BUN [5]: 19.2 mg/dL
CRE [5]: 0.2 mg/dL
Ca [5]: 10.8 mg/dL
Cl [5]: 105.6 meq/L
DBIL [5]: 0 mg/dL
GLC [5]: 179.6 mg/dL
IP [5]: 7 mg/dL
LDH [5]: 261.8 IU/L
Na [5]: 141 meq/L
PL [5]: 133.6 mg/dL
RALB [5]: 3 g/dL
TBIL [5]: 0.004 mg/dL
TC [5]: 72.4 mg/dL
TG [5]: 73.2 mg/dL
TP [5]: 5.8 g/dL
gamma-GTP [5]: 1.6 IU/L
TERMINAL_BW [6]: 256.9 g
TERMINAL_BW [7]: 298.5 g
TERMINAL_BW [8]: 353.3 g
APTT [6]: 20.6 s
Bas [6]: 0%
Eos [6]: 0.4%
Fbg [6]: 302.4 mg/dL
Hb [6]: 12.9 g/dL
Ht [6]: 38.5%
Lym [6]: 79.4%
MCH [6]: 21 pg
MCHC [6]: 33.6%
MCV [6]: 62.6 fL
Mono [6]: 1.2%
Neu [6]: 17.6%
PT [6]: 16.1 s
Plat [6]: 111.5 x10_4/uL
RBC [6]: 616.2 x10_4/ul
Ret [6]: 5.5%
WBC [6]: 106.4 x10_2/uL
APTT [7]: 20.9 s
Bas [7]: 0%
Eos [7]: 0.4%
Fbg [7]: 316 mg/dL
Hb [7]: 13.9 g/dL
Ht [7]: 41.6%
Lym [7]: 72.4%
MCH [7]: 20.3 pg
MCHC [7]: 33.5%
MCV [7]: 60.6 fL
Mono [7]: 1.4%
Neu [7]: 24.6%
PT [7]: 16.3 s
Plat [7]: 122.8 x10_4/uL
RBC [7]: 687.8 x10_4/ul
Ret [7]: 4.5%
WBC [7]: 85.7 x10_2/uL
APTT [8]: 23.2 s
Bas [8]: 0%
Eos [8]: 1.2%
Fbg [8]: 314.2 mg/dL
Hb [8]: 14.5 g/dL
Ht [8]: 42.3%
Lym [8]: 72%
MCH [8]: 19.1 pg
MCHC [8]: 34.2%
MCV [8]: 55.8 fL
Mono [8]: 1.8%
Neu [8]: 24%
PT [8]: 17.1 s
Plat [8]: 109.8 x10_4/uL
RBC [8]: 758.8 x10_4/ul
Ret [8]: 3%
WBC [8]: 86.3 x10_2/uL
KIDNEY_L [6]: 1.2 g
KIDNEY_R [6]: 1.2 g
KIDNEY_TOTAL [6]: 2.4 g
KIDNEY_L [7]: 1.3 g
KIDNEY_R [7]: 1.3 g
KIDNEY_TOTAL [7]: 2.6 g
KIDNEY_L [8]: 1.4 g
KIDNEY_R [8]: 1.4 g
KIDNEY_TOTAL [8]: 2.8 g
LIVER [7]: 15 g
LIVER [8]: 16.1 g
ALP [6]: 1138 IU/L
AST [6]: 64.8 IU/L
BUN [6]: 17.2 mg/dL
CRE [6]: 0.1 mg/dL
Ca [6]: 10.8 mg/dL
Cl [6]: 107.6 meq/L
DBIL [6]: 0 mg/dL
GLC [6]: 189.6 mg/dL
IP [6]: 7 mg/dL
LDH [6]: 203 IU/L
Na [6]: 143.6 meq/L
PL [6]: 119.6 mg/dL
RALB [6]: 2.9 g/dL
TBIL [6]: 0 mg/dL
TC [6]: 62.4 mg/dL
TG [6]: 73.8 mg/dL
TP [6]: 5.8 g/dL
gamma-GTP [6]: 1 IU/L
ALP [7]: 1375.6 IU/L
AST [7]: 67.8 IU/L
BUN [7]: 16.8 mg/dL
CRE [7]: 0.1 mg/dL
Ca [7]: 10.4 mg/dL
Cl [7]: 106 meq/L
DBIL [7]: 0 mg/dL
GLC [7]: 177.8 mg/dL
IP [7]: 6.3 mg/dL
LDH [7]: 194.4 IU/L
Na [7]: 143.8 meq/L
PL [7]: 138.2 mg/dL
RALB [7]: 3.1 g/dL
TBIL [7]: 0.004 mg/dL
TC [7]: 70.4 mg/dL
TG [7]: 114.8 mg/dL
TP [7]: 6 g/dL
gamma-GTP [7]: 1.2 IU/L
ALP [8]: 1014.6 IU/L
AST [8]: 65.8 IU/L
BUN [8]: 16.8 mg/dL
CRE [8]: 0.2 mg/dL
Ca [8]: 10.3 mg/dL
Cl [8]: 106.8 meq/L
DBIL [8]: 0 mg/dL
GLC [8]: 187.6 mg/dL
IP [8]: 5.9 mg/dL
LDH [8]: 154 IU/L
Na [8]: 142.2 meq/L
PL [8]: 111.8 mg/dL
RALB [8]: 3.2 g/dL
TBIL [8]: 0.016 mg/dL
TC [8]: 57 mg/dL
TG [8]: 56.4 mg/dL
TP [8]: 6.1 g/dL
gamma-GTP [8]: 1.6 IU/L
